Where two headings read alike, the source gives them in different places.
What was measured:
Format in all cases: cell-based
[1] = test system: Mycobacterium marinum; test: Infection assay: intracellular M. marinum growth (luminescence) in D. discoideum; settings: for activity at 0.411523 µM / activity at 1.23457 µM / activity at 3.7037 µM / activity at 11.1111 µM / activity at 33.3333 µM / activity at 100 µM: 72 h; for activity at 0.411523 µM: conc 0.411522634 uM; for activity at 1.23457 µM: conc 1.234567901 uM; for activity at 3.7037 µM: conc 3.703703704 uM; for activity at 11.1111 µM: conc 11.11111111 uM; for activity at 33.3333 µM: conc 33.33333333 uM; for activity at 100 µM: conc 100 uM; for IC50: interpolated between the two concentrations closest to residual growth 0.5, top concentration 100 μM
Text: (§1) Since fractions were not weighed individually, the injection mass was used to calculate an average mass per fraction and thus a nominal mass concentration.

[2] = test system: Dictyostelium discoideum; test: Infection assay: growth of the host amoeba D. discoideum (fluorescence) in infection; settings: for activity at 0.411523 µM / activity at 1.23457 µM / activity at 3.7037 µM / activity at 11.1111 µM / activity at 33.3333 µM / activity at 100 µM: 72 h; for IC50: read-out: IC50 Dd in infection (μM)
Text: as §1

[3] = test system: Mycobacterium marinum; test: Anti-biotic assay: M. marinum growth in broth (luminescence); settings: for activity at 0.411523 µM / activity at 1.23457 µM / activity at 3.7037 µM / activity at 11.1111 µM / activity at 33.3333 µM / activity at 100 µM: 72 h; for IC50: read-out: IC50 Mm in broth (μM)
Method: as §1
Plating bacteria and compounds or fractions was performed analogously to the infection assay described above. Bacteria growth was monitored with the Agilent BioTek H1 plate reader by recording luminescence at 32 °C.
The prepared plates were sealed and stored at 4 °C overnight. On the day of the experiment, nine 10 cm Petri dishes were infected (as described before) and grouped into three pools.

[4] = vehicle control set at 1, read-out: mean normalized residual growth, Mm in infection
[5] = vehicle control set at 1, read-out: median normalized residual growth, Mm in infection
[6] = read-out: mean normalized residual growth, Dd in infection
[7] = read-out: median normalized residual growth, Dd in infection
[8] = read-out: mean (normalised M. marinum growth, Mm in broth)
[9] = read-out: median (normalised M. marinum growth, Mm in broth)

For `Oc1ccc(/C=C/c2cc(O)c3c(c2)O[C@@H](c2ccc(O)cc2)[C@@H]3c2cc(O)c3c(c2)O[C@H](c2ccc(O)cc2O)[C@H]3c2cc(O)cc(O)c2)cc1` [Compound 5, (−)-Latifolol], the activity at 0.411523 µM [1, 4] was 116%, the activity at 0.411523 µM [1, 5] was 112% and the activity at 1.23457 µM [1, 4] was 160%. The activity at 1.23457 µM [1, 5] was 158%, the activity at 3.7037 µM [1, 4] was 192% and the activity at 3.7037 µM [1, 5] was 178%. For the same compound, the activity at 11.1111 µM [1, 4] was 136%, the activity at 11.1111 µM [1, 5] was 125% and the activity at 33.3333 µM [1, 4] was 81.5%. It also gave an activity at 33.3333 µM [1, 5] of 81.6%, an activity at 100 µM [1, 4] of 2.94% and an activity at 100 µM [1, 5] of 7.57%. The IC50 [1] was 66.7 µM, the activity at 0.411523 µM [2, 6] was 112% and the activity at 1.23457 µM [2, 6] was 85.8%. The activity at 3.7037 µM [2, 6] was 91.4%, the activity at 11.1111 µM [2, 6] was 75.1% and the activity at 33.3333 µM [2, 6] was 61%. The activity at 100 µM [2, 6] was -3.13%, the activity at 0.411523 µM [2, 7] was 93.8% and the activity at 1.23457 µM [2, 7] was 81.7%. It also gave an activity at 3.7037 µM [2, 7] of 79.8%, an activity at 11.1111 µM [2, 7] of 74.5% and an activity at 33.3333 µM [2, 7] of 69%. For the same compound, the activity at 100 µM [2, 7] was 32.8%, the IC50 [2] was 66.7 µM and the activity at 0.411523 µM [3, 8] was 107%. For the same compound, the activity at 1.23457 µM [3, 8] was 108%, the activity at 3.7037 µM [3, 8] was 104% and the activity at 11.1111 µM [3, 8] was 114%. The activity at 33.3333 µM [3, 8] was 95.8%, the activity at 100 µM [3, 8] was 91% and the activity at 0.411523 µM [3, 9] was 106%. For the same compound, the activity at 1.23457 µM [3, 9] was 108%, the activity at 3.7037 µM [3, 9] was 107% and the activity at 11.1111 µM [3, 9] was 116%. The activity at 33.3333 µM [3, 9] was 102%, the activity at 100 µM [3, 9] was 102% and the IC50 [3] was > 100 µM.
Work on `Oc1ccc(/C=C/c2cc(O)c3c(c2)O[C@H](c2ccc(O)cc2)[C@H]3c2cc(O)c3c(c2)O[C@H](c2ccc(O)cc2)[C@H]3c2cc(O)c3c(c2)O[C@H](c2ccc(O)cc2O)[C@H]3c2cc(O)cc(O)c2)cc1` [Compound 7, Macrostachyol A] yielded an activity at 0.411523 µM [1, 4] of 139%, an activity at 0.411523 µM [1, 5] of 130% and an activity at 1.23457 µM [1, 4] of 158%. For the same compound, the activity at 1.23457 µM [1, 5] was 153%, the activity at 3.7037 µM [1, 4] was 163% and the activity at 3.7037 µM [1, 5] was 154%. For the same compound, the activity at 11.1111 µM [1, 4] was 151%, the activity at 11.1111 µM [1, 5] was 157% and the activity at 33.3333 µM [1, 4] was 80.7%. It also gave an activity at 33.3333 µM [1, 5] of 76%, an activity at 100 µM [1, 4] of 33.4% and an activity at 100 µM [1, 5] of 37.5%. For the same compound, the IC50 [1] was 66.7 µM, the activity at 0.411523 µM [2, 6] was 143% and the activity at 1.23457 µM [2, 6] was 146%. It also gave an activity at 3.7037 µM [2, 6] of 119%, an activity at 11.1111 µM [2, 6] of 111% and an activity at 33.3333 µM [2, 6] of 63%. It also gave an activity at 100 µM [2, 6] of -92.9%, an activity at 0.411523 µM [2, 7] of 91.3% and an activity at 1.23457 µM [2, 7] of 90.3%. For the same compound, the activity at 3.7037 µM [2, 7] was 92%, the activity at 11.1111 µM [2, 7] was 91% and the activity at 33.3333 µM [2, 7] was 82.1%. It also gave an activity at 100 µM [2, 7] of 3.73%, an IC50 [2] of 66.7 µM and an activity at 0.411523 µM [3, 8] of 118%. The activity at 1.23457 µM [3, 8] was 118%, the activity at 3.7037 µM [3, 8] was 114% and the activity at 11.1111 µM [3, 8] was 106%. It also gave an activity at 33.3333 µM [3, 8] of 112%, an activity at 100 µM [3, 8] of 107% and an activity at 0.411523 µM [3, 9] of 117%. The activity at 1.23457 µM [3, 9] was 123%, the activity at 3.7037 µM [3, 9] was 116% and the activity at 11.1111 µM [3, 9] was 105%. The activity at 33.3333 µM [3, 9] was 114%, the activity at 100 µM [3, 9] was 109% and the IC50 [3] was > 100 µM.

— publication PMC12015462, “Prioritization of novel anti-infective stilbene derivatives by combining metabolomic data organization and a stringent 3R-infection model in a knowledge graph” (RSC Advances, 2025)
